From paper PMC3390344, “Antibacterial Activity and Mechanism of a Scorpion Venom Peptide Derivative In Vitro and In Vivo” (PLoS ONE, 2012)
Ends that are not written are not given here.

How the values were obtained:
[1] = tested on: P. aeruginosa AB93066; assay: MIC, broth microdilution (CLSI); assay type: cell-based, Pseudomonas aeruginosa; conditions: P. aeruginosa AB93066, Gram-negative, 96-well
Method: (§1) S. aureus AB94004, S. aureus ATCC 25923, E. coli AB94012, E. coli ATCC 25922, Pseudomonas aeruginosa AB93066, Bacillus thuringiensis AB92037, Bacillus subtilis AB91021, and Micrococcus luteus AB93113 were purchased from the China Center of Type Culture Collection (CCTCC).
(§2) The MIC was determined via a microdilution assay in 96-well microtiter plates according to the broth microdilution guideline of Clinical and Laboratory Standards Institute (CLSI).

[2] = tested on: human red blood cells; assay: Hemolytic activity; assay type: cell-based; conditions: 37 °C, 1 h, absorbance at 570 nm, positive control 0.1% Triton X-100, method of Käber modified by Achmarine
Method: Figure 1 Screening, antimicrobial and hemolytic activities of Kn2-7 in vitro. (A) Multiple alignments of Kn2-7 and its seven derivatives. (B) Predicted secondary structure of Kn2-7 and its seven derivatives. (C) Antibacterial activity screening of Kn2-7 and its seven derivative peptides. (D) Hemolytic activity of Kn2-7. The hemolytic activities of the Kn2-7 and BmKn2 peptides were estimated by monitoring the increase in the absorbance at 570 nm after incubating human red blood cells with different peptide concentrations at 37 °C for 1 h. The positive control was 0.1% Triton X-100, and 0.85% saline was used as a blank. […] It is read as >100 for BmKn2, Kn2-3 and Kn2-4, and as 100 for Kn2-1, Kn2-2, Kn2-5 and Kn2-6.
The hemolytic activities of Kn2-7 and BmKn2 peptides were tested against human red blood cells. HC50 values were obtained according to the method of Käber, modified by Achmarine. Saline solution at a concentration of 0.85% was used as the negative control, and 0.1% Triton X-100 was used as the positive control.

[3] = tested on: M. luteus AB93113; assay: MIC, broth microdilution (CLSI); assay type: cell-based, Micrococcus luteus; conditions: M. luteus AB93113, Gram-positive, 96-well
Method: as §1, §2

[4] = tested on: P. aeruginosa A092994; assay: MIC, broth microdilution (CLSI); assay type: cell-based, Pseudomonas aeruginosa; conditions: P. aeruginosa A092994, clinical isolate
Method: (§3) Clinical isolated Pseudomonas aeruginosa strains A092994, A093052, A093056, A093085 and A093115 were obtained from Hubei Maternal and Child Health Hospital.
as §2

[5] = tested on: P. aeruginosa A093056; assay: MIC, broth microdilution (CLSI); assay type: cell-based, Pseudomonas aeruginosa; conditions: P. aeruginosa A093056, clinical isolate
Method: as §3, §2

[6] = tested on: P. aeruginosa A093115; assay: MIC, broth microdilution (CLSI); assay type: cell-based, Pseudomonas aeruginosa; conditions: P. aeruginosa A093115, clinical isolate
Method: as §3, §2

[7] = tested on: P. aeruginosa A093085; assay: MIC, broth microdilution (CLSI); assay type: cell-based, Pseudomonas aeruginosa; conditions: P. aeruginosa A093085, clinical isolate
Method: as §3, §2

[8] = tested on: P. aeruginosa A093052; assay: MIC, broth microdilution (CLSI); assay type: cell-based, Pseudomonas aeruginosa; conditions: P. aeruginosa A093052, clinical isolate
Method: as §3, §2

[9] = tested on: HIV-1; conditions: by direct interaction with viral particle; cited from earlier work
Description: In a previous study by our group, we characterized an antimicrobial peptide, BmKn2, derived from the venom of the scorpion Mesobuthus martensii Karsch. In the present study, a derivative of BmKn2, was designed to increase the antibacterial activity and reduce the hemolytic activity. […] In addit ...

[10] = Biolayer interferometry; assay type: binding, E. coli; conditions: 10 µg/mL biotinylated peptide on biosensor tips, 500 µg/mL LPS, 10 mM HEPES pH 7.4, 0.14 M NaCl, 30°C
Method: Figure 7 Binding assay of Kn2-7 and LTA or LPS. (A) Interaction of 10 µg/ml of Kn2-7 with 500 µg/ml of LPS or 500 µg/mL of LTA. Curve A3 is LPS, curve B3 is LTA and curve C3 is buffer. (B) Interaction of 10 µg/mL of BmKn2 with 500 µg/mL of LPS or 500 µg/mL of LTA. Curve D3 is LPS, curve E3 is LTA and curve F3 is the buffer. (C) MICs of Kn2-7 and BmKn2 treated with LTA or LPS against S. aureus and E. coli.
Biolayer Interferometry (BLI) experiments were performed on OCT RED (FortéBio, Inc.). A total of 500 µg/mL of lipoteichoic acid from S. aureus (LTA, Sigma, L2515), lipopolysaccharides from E. coli (LPS, Sigma, L2880) or buffer (10 mM HEPES, pH 7.4 and 0.14 M NaCl) was dispensed into 96-well microtiter plates at a volume of 200 µl per well. The operating temperature was 30°C. Biosensor tips (FortéBio, Inc., Menlo Park, CA) were pre-wetted with the buffer for 60 seconds at baseline. Then, 10 µg/mL Biotin-Kn2-7 or Biotin-BmKn2 was loaded onto the biosensor tips for 900 seconds. Baseline 2 was subsequently established for 300 seconds. Dissociation of Kn2-7 or BmKn2 occurred for 900 seconds in the buffer. Data were generated automatically by the Octet® User Software (version 3.1) and were subsequently analyzed from the resultant text files using Excel 2000.

[11] = tested on: E. coli AB94012; assay: LTA and LPS competition binding assay (MIC); assay type: cell-based; conditions: controls of the competition assay (Figure 7C): untreated peptide, or LTA / LPS alone
Method: To confirm the results of the BLI titrations, 250 µg/mL of Kn2-7 or BmKn2 was mixed with an equal volume of 1 mg/mL LTA or LPS. Then, the MICs of Kn2-7 or BmKn2 mixed with LTA against S. aureus and E. coli were measured. […] The MICs of Kn2-7 and BmKn2 treated with LTA against S. aureus were 25 and 12.5 µg/mL, respectively.
A total of 250 µg/mL of each peptide solution was mixed with an equal volume of 1 mg/mL of the LTA or LPS solution. Then, the MICs of BmKn2 and Kn2-7 treated with LTA or LPS against S. aureus AB94004 and E. coli AB94012 were measured.

In the case of FIGAIARLLSKIF-NH2 [BmKn2], the MIC [1] is reported as 50 µg/mL, the “HC50 (hemolytic activity)” value [2] is reported as 17.13 µg/mL and the MIC [3] is reported as 6.25 µg/mL. For the same substance, the MIC [4] was >100 µg/mL, the MIC [5] was >100 µg/mL and the MIC [6] was >100 µg/mL. For the same substance, the MIC [7] was >100 µg/mL and the MIC [8] was >100 µg/mL.
In the case of FIKRIARLLRKIF [Kn2-7], the “Inhibition of HIV-1” value [9] is listed as “could inhibit HIV-1”, the “Binding to LPS (BLI)” value [10] is listed as “able to bind to LPS” and the “MIC E.coli, substance alone” value [11] is listed as 6.25 µg/mL.
